The nature of the series: Henry solubility constant Hcp at 298.15 K (mol/(m3 Pa)). The conditions noted are these: reference: Chao et al. (2017).
For the compound `O=[N+]([O-])c1ccccc1O` [2-nitrophenol], the “Henry solubility constant Hcp” value was found to be 9.9. Regarding `COP(=S)(OC)Oc1ccc([N+](=O)[O-])cc1` [methylparathion], the “Henry solubility constant Hcp” value came to 17. For the compound `Cc1cccc(N)c1` [3-methylbenzenamine], the “Henry solubility constant Hcp” value came out at 3.2. As for `ClC1=C(Cl)[C@]2(Cl)[C@H]3[C@H]([C@@H]4C=C[C@H]3C4)[C@@]1(Cl)C2(Cl)Cl` [aldrin], the “Henry solubility constant Hcp” value was 0.26. On to `CCNc1nc(NC(C)C)nc(SC)n1` [ametryn], for which the “Henry solubility constant Hcp” value amounted to 21. Next, `OCc1ccccc1` [(hydroxymethyl)-benzene]: 17; `Cc1cccc([N+](=O)[O-])c1` [3-nitrotoluene]: 1.3. In the case of `Cc1ccccc1N` [2-methylbenzenamine], the “Henry solubility constant Hcp” value was 3.

For `CN(C)C(=O)Nc1ccc(Cl)c(Cl)c1` [diuron], the “Henry solubility constant Hcp” value worked out at 35. For the compound `ClC1=C(Cl)C2(Cl)C3C4OC4C(Cl)C3C1(Cl)C2(Cl)Cl` (stereo unspecified) [heptachlorepoxide], the “Henry solubility constant Hcp” value turned out to be 0.96. Consider `O=[N+]([O-])c1cccc(Cl)c1` [3-chloronitrobenzene], for which the “Henry solubility constant Hcp” value worked out at 1.4. Take `O=[N+]([O-])c1ccccc1` [nitrobenzene]: the “Henry solubility constant Hcp” value was 0.67. Next, `O=[N+]([O-])c1cccc2ccccc12` [1-nitronaphthalene]: 4.6; `COC(=O)c1ccccc1C(=O)OC` [dimethyl phthalate]: 23; `O=[N+]([O-])c1ccc(O)cc1` [4-nitrophenol]: 14. Consider `O=[N+]([O-])c1ccc(Cl)cc1` [4-chloronitrobenzene], for which the “Henry solubility constant Hcp” value turned out to be 1.4.

Take `Nc1cccc(Cl)c1` [1-amino-3-chlorobenzene]: the “Henry solubility constant Hcp” value was 4.7. Next, `CCOC(=O)CC(SP(=S)(OC)OC)C(=O)OCC` (stereo unspecified) [malathion]: 15; `Nc1ccccc1Cl` [1-amino-2-chlorobenzene]: 0.78. The result for `CC1CCCC(O)C1` (stereo unspecified) [3-methylcyclohexanol] reads 2.9; that for `ClC1C(Cl)C(Cl)C(Cl)C(Cl)C1Cl` (stereo unspecified) [γ-1,2,3,4,5,6-hexachlorocyclohexane], 3.1. Consider `Clc1ccc(C(c2ccc(Cl)cc2)C(Cl)Cl)cc1` [1,1-dichloro-2,2-bis-(4-chlorophenyl)-ethane], for which the “Henry solubility constant Hcp” value is 0.76. On to `COP(=O)(OC)C(O)C(Cl)(Cl)Cl` (stereo unspecified), for which the “Henry solubility constant Hcp” value came out at 55. Take `CNC(=O)ON=C(C)SC` [methomyl]: the “Henry solubility constant Hcp” value was determined as 200. Turning to `Nc1ccccc1` [aminobenzene], the “Henry solubility constant Hcp” value came to 4.4. With `O=[N+]([O-])c1ccc(O)c([N+](=O)[O-])c1` [2,4-dinitrophenol], the “Henry solubility constant Hcp” value amounted to 970. `CC(C)CO` [2-methyl-1-propanol]: the “Henry solubility constant Hcp” value worked out at 1.2. For `ClC1=C(Cl)[C@]2(Cl)[C@@H]3[C@H]4C[C@H]([C@@H]5O[C@H]45)[C@@H]3[C@@]1(Cl)C2(Cl)Cl` [endrin], the “Henry solubility constant Hcp” value amounted to 1.5.

For the compound `ClC1=C(Cl)[C@]2(Cl)[C@@H]3[C@@H]4C[C@@H]([C@H]5O[C@@H]45)[C@@H]3[C@@]1(Cl)C2(Cl)Cl` [dieldrin], the “Henry solubility constant Hcp” value came to 0.65. With `Cc1ccccc1O` [1-hydroxy-2-methylbenzene], the “Henry solubility constant Hcp” value was determined as 6.5. With `CNC(=O)Oc1cccc2c1OC(C)(C)C2` [carbofuran], the “Henry solubility constant Hcp” value was determined as 24.

Values taken from Sander's compilation of Henry's law constants (doi:10.1016/j.watres.2017.04.074).
